# From patent US10221171B2, “Oxathiazole thiazolium Hsp 70 inhibitors” (THE REGENTS OF THE UNIVERSITY OF CALIFORNIA, priority 2015, dated 2019)
# Like-named read-outs stand apart in the source and are kept apart here.
# Columns and labels:
# Type in all cases: cell-based
# [1] = tested on: MCF-7; assay: MTT cell viability assay, MCF-7; conditions: Homo sapiens, MTT, 72-hour incubation, read-out: IC50/μM MCF-7
# Procedure: (§1) Cells were then treated with compound at various concentrations in 0.2 mL media. After the 72-hour incubation period, cells were washed in PBS (3×100 μL), and 10 μL MTT reagent was added with 100 μL fresh media. Cells were then incubated for 4 hr in a humidified chamber at 37° C. with 5% CO2. Insoluble formazan crystals were solubilized by addition of 0.1 mL detergent solution (4 hr at room temp., dark). Resulting colored solutions were then quantified at an absorbance of 570 nm.
# [2] = tested on: MDA-MB-231; assay: MTT cell viability assay, MDA-MB-231; conditions: Homo sapiens
# Procedure: as §1
# [3] = tested on: MEF (C57BL/6); assay: MTT cell viability assay, MEF (C57BL/6); conditions: Mus musculus
# Procedure: as §1
# [4] = MTT, 72-hour incubation, read-out: IC50/μM MEF (C57BL/6)
# [5] = MDA-MB-231, 72 h, 72-hour incubation
# [6] = 72 h, read-out: IC50/μM MEF (C57BL/6), MTT, 72-hour incubation
Structure (SMILES),IC50 ([1]; MCF7) [µM],"IC50 ([2]; MDA-MB-231, 72-hour incubation) [µM]","IC50 [3, 4] [µM]","IC50 [2, 5] [µM]","IC50 [3, 6] [µM]","IC50 ([1]; MCF7, 72 h) [µM]"
CCn1c(=O)/c(=C2\Sc3cc(C)ccc3N2C)s/c1=C\c1scc[n+]1CCc1ccc(Cl)cc1 [JG-386],0.53 ± 0.05,0.28 ± 0.03,1.7 ± 0.1,,,
CCn1c(=O)/c(=C2\Sc3cc(C)ccc3N2C)s/c1=C\c1scc[n+]1C(C)c1ccccc1 (stereo not drawn) [JG-318],0.16 ± 0.03,0.11 ± 0.01,1.1 ± 0.1,,,
CCn1c(=O)/c(=C2\Sc3cc(F)ccc3N2C)s/c1=C\c1scc[n+]1Cc1cccc(Cl)c1 [JG-272],0.36 ± 0.02,0.77 ± 0.1,0.62 ± 0.03,,,
CCn1c(=O)/c(=C2\Sc3cc(Cl)ccc3N2C)s/c1=C\c1scc[n+]1[C@@H](C)c1ccccc1 [JG-335],0.14 ± 0.02,0.11 ± 0.01,1.4 ± 0.1,,,
CCn1c(=O)/c(=C2\Sc3ccc(OC)cc3N2C)s/c1=C\c1scc[n+]1Cc1ccccc1OC [JG-404],0.79 ± 0.1,0.3 ± 0.03,1.3 ± 0.1,,,
CCn1c(=O)/c(=C2\Sc3ccc(C)cc3N2C)s/c1=C\c1scc[n+]1Cc1occc1C(=O)OC [JG-370],0.22 ± 0.01,0.18 ± 0.02,1.2 ± 0.1,,,
CCc1ccc2c(c1)S/C(=c1/s/c(=C\c3scc[n+]3Cc3c(C)cccc3C)n(CC)c1=O)N2C [JG-343],0.22 ± 0.02,0.25 ± 0.01,0.64 ± 0.01,,,
CCn1c(=O)/c(=C2\Sc3cc(Br)ccc3N2C)s/c1=C\c1scc[n+]1Cc1ccccc1OC(F)(F)F [JG-291],0.14 ± 0.01,0.14 ± 0.01,2.3 ± 0.1,,,
CCn1c(=O)/c(=C2\Sc3ccc(C)cc3N2C)s/c1=C\c1scc[n+]1Cc1ccccc1Cl [JG-365],0.11 ± 0.01,0.16 ± 0.02,0.42 ± 0.02,,,
CCn1c(=O)/c(=C2\Sc3cc(C)ccc3N2C)s/c1=C\c1scc[n+]1CCc1ccccc1C [JG-392],0.35 ± 0.03,0.19 ± 0.02,1.2 ± 0.1,,,
CCc1ccc2c(c1)S/C(=c1/s/c(=C\c3scc[n+]3Cc3cc(C)sc3C)n(CC)c1=O)N2C [JG-347],0.095 ± 0.008,0.21 ± 0.01,0.6 ± 0.01,,,
CCc1ccc2c(c1)S/C(=c1/s/c(=C\c3scc[n+]3Cc3ccccc3OC(F)(F)F)n(CC)c1=O)N2C [JG-297],0.08 ± 0.005,0.097 ± 0.006,0.41 ± 0.01,,,
CCn1c(=O)/c(=C2\Sc3cc(C)ccc3N2C)s/c1=C\c1scc[n+]1Cc1c(C)cccc1C [JG-372],0.18 ± 0.01,0.68 ± 0.16,0.67 ± 0.01,,,
CCn1c(=O)/c(=C2\Sc3cc(F)ccc3N2C)s/c1=C\c1scc[n+]1Cc1csc(NC(C)=O)n1 [JG-262],> 5,> 20,> 10,,,
CCn1c(=O)/c(=C2\Sc3cc(Cl)ccc3N2C)s/c1=C\c1scc[n+]1Cc1cnc(Cl)s1 [JG-259],> 5,,,2.3 ± 0.3,8.9 ± 0.8,
CN1/C(=c2\s/c(=C\c3scc[n+]3Cc3ccccc3)n(C)c2=O)Sc2cc(F)cc(F)c21 [JG-282],0.29 ± 0.04,0.26 ± 0.03,2.5 ± 0.1,,,
CCn1c(=O)/c(=C2\Sc3cc(F)ccc3N2C)s/c1=C\c1scc[n+]1Cc1ccccc1Br [JG-308],0.16 ± 0.02,0.19 ± 0.02,0.6 ± 0.06,,,
CCn1c(=O)/c(=C2\Sc3cc(OC)ccc3N2C)s/c1=C\c1scc[n+]1CCc1cccc(Cl)c1 [JG-394],0.56 ± 0.06,0.24 ± 0.01,2.3 ± 0.1,,,
CCn1c(=O)/c(=C2\Sc3cc(OC)ccc3N2C)s/c1=C\c1scc[n+]1Cc1ccccc1OC [JG-352],,,,0.062 ± 0.006,0.77 ± 0.03,0.076 ± 0.005
CCn1c(=O)/c(=C2\Sc3cc(OC)ccc3N2C)s/c1=C\c1scc[n+]1CCc1ccc(C(F)(F)F)cc1 [JG-395],0.51 ± 0.06,0.42 ± 0.03,2.9 ± 0.1,,,
CCn1c(=O)/c(=C2\Sc3cc(C)ccc3N2C)s/c1=C\c1scc[n+]1Cc1ccccc1Cl [JG-283],0.063 ± 0.007,0.088 ± 0.005,0.45 ± 0.02,,,
CCn1c(=O)/c(=C2\Sc3cc(F)c(F)cc3N2C)s/c1=C\c1scc[n+]1Cc1ccccc1 [JG-251],2.5 ± 0.5,1.1 ± 0.1,0.91 ± 0.06,,,
CCn1c(=O)/c(=C2\Sc3cc(C(C)C)ccc3N2C)s/c1=C\c1scc[n+]1Cc1ccc(C(F)(F)F)o1 [JG-328],0.14 ± 0.02,0.23 ± 0.02,0.7 ± 0.03,,,
CCn1c(=O)/c(=C2\Sc3cc(Cl)ccc3N2C)s/c1=C\c1scc[n+]1Cc1csc(NC(C)=O)n1 [JG-261],> 5,> 20,,,4.2 ± 0.6,
CCn1c(=O)/c(=C2\Sc3cc(OC)ccc3N2C)s/c1=C\c1scc[n+]1Cc1ccc(C(F)(F)F)o1 [JG-306],0.16 ± 0.02,0.1 ± 0.01,> 10,,,
CCn1c(=O)/c(=C2\Sc3cc(C(C)C)ccc3N2C)s/c1=C\c1scc[n+]1Cc1ccsc1C(=O)OC [JG-327],0.15 ± 0.02,0.17 ± 0.02,0.7 ± 0.03,,,

Structure (SMILES),IC50 ([1]; MCF7) [µM],"IC50 ([2]; MDA-MB-231, 72-hour incubation) [µM]","IC50 [3, 4] [µM]","IC50 [2, 5] [µM]","IC50 [3, 6] [µM]","IC50 ([1]; MCF7, 72 h) [µM]"
CCn1c(=O)/c(=C2\Sc3cc(F)ccc3N2C)s/c1=C\c1scc[n+]1Cc1c(Cl)cccc1Cl [JG-338],0.17 ± 0.02,0.14 ± 0.01,1 ± 0.03,,,
CCn1c(=O)/c(=C2\Sc3ccc(C)cc3N2C)s/c1=C\c1scc[n+]1Cc1ccccc1C(=O)OC [JG-364],0.15 ± 0.01,0.11 ± 0.01,2.3 ± 0.2,,,
CCn1c(=O)/c(=C2\Sc3cc(OC)ccc3N2C)s/c1=C\c1scc[n+]1Cc1cc(C)sc1C [JG-353],0.15 ± 0.01,0.15 ± 0.01,1.1 ± 0.1,,,
CCn1c(=O)/c(=C2\Sc3cc(OC)ccc3N2C)s/c1=C\c1scc[n+]1CCc1ccccc1C(F)(F)F [JG-377],0.12 ± 0.01,0.19 ± 0.03,> 10,,,
CCn1c(=O)/c(=C2\Sc3cc(Cl)ccc3N2C)s/c1=C\c1scc[n+]1CCc1ccccc1OC [JG-389],0.86 ± 0.08,0.27 ± 0.01,2.4 ± 0.1,,,
CCn1c(=O)/c(=C2\Sc3cc(C)ccc3N2C)s/c1=C\c1scc[n+]1Cc1ccccc1SC(F)(F)F [JG-373],0.095 ± 0.005,0.22 ± 0.03,0.44 ± 0.03,,,
CCn1c(=O)/c(=C2\Sc3cc(C#N)ccc3N2C)s/c1=C\c1scc[n+]1Cc1ccccc1 [JG-360],1.3 ± 0.1,2.3 ± 0.1,2.3 ± 0.1,,,
CCn1c(=O)/c(=C2\Sc3ccc(C)cc3N2C)s/c1=C\c1scc[n+]1Cc1c(Cl)cccc1Cl [JG-361],,,,0.054 ± 0.006,0.55 ± 0.03,0.088 ± 0.008
CCn1c(=O)/c(=C2\Sc3cc(Cl)ccc3N2C)s/c1=C\c1scc[n+]1Cc1ccccc1C(=O)OC [JG-331],,,,0.17 ± 0.02,2.9 ± 0.1,0.17 ± 0.02
CCn1c(=O)/c(=C2\Sc3cc(C)ccc3N2C)s/c1=C\c1scc[n+]1Cc1ccccc1C(=O)OC [JG-374],0.16 ± 0.01,0.15 ± 0.01,0.69 ± 0.03,,,
CCn1c(=O)/c(=C2\Sc3cc(SC)ccc3N2C)s/c1=C\c1scc[n+]1Cc1ccccc1Cl [JG-309],,,,0.13 ± 0.01,0.75 ± 0.05,0.15 ± 0.01
CCn1c(=O)/c(=C2\Sc3cc(C(C)C)ccc3N2C)s/c1=C\c1scc[n+]1Cc1ccccc1Cl [JG-323],0.12 ± 0.01,0.19 ± 0.01,0.53 ± 0.02,,,
CCn1c(=O)/c(=C2\Sc3cc(Br)ccc3N2C)s/c1=C\c1scc[n+]1Cc1ccsc1C(=O)OC [JG-293],0.3 ± 0.03,0.14 ± 0.03,3.1 ± 0.3,,,
CCn1c(=O)/c(=C2\Sc3ccc(OC)cc3N2C)s/c1=C\c1scc[n+]1Cc1ccsc1C(=O)OC [JG-402],0.45 ± 0.04,0.23 ± 0.01,0.82 ± 0.06,,,
CCn1c(=O)/c(=C2\Sc3cc(C(C)C)ccc3N2C)s/c1=C\c1scc[n+]1C(C)c1ccccc1 (stereo not drawn) [JG-319],0.13 ± 0.01,0.26 ± 0.03,1.7 ± 0.04,,,
CCn1c(=O)/c(=C2\Sc3cc(SC)ccc3N2C)s/c1=C\c1scc[n+]1Cc1ccccc1C(=O)OC [JG-357],0.25 ± 0.01,0.14 ± 0.01,3.5 ± 0.2,,,
CCn1c(=O)/c(=C2\Sc3cc(C(C)C)ccc3N2C)s/c1=C\c1scc[n+]1Cc1ccccc1C [JG-324],0.17 ± 0.02,0.15 ± 0.02,1.9 ± 0.1,,,
CCn1c(=O)/c(=C2\SCCN2C)s/c1=C\c1ccccn1 [JG-273],> 5,> 20,> 10,,,
CCn1c(=O)/c(=C2\Sc3cc(Br)ccc3N2C)s/c1=C\c1scc[n+]1Cc1ccccc1C(F)(F)F [JG-292],0.12 ± 0.01,0.18 ± 0.02,2.7 ± 0.1,,,
CCn1c(=O)/c(=C2\Sc3cc(Cl)ccc3N2C)s/c1=C\c1scc[n+]1CCc1ccccc1 [JG-269],0.18 ± 0.01,0.26 ± 0.04,2.2 ± 0.1,,,
CCn1c(=O)/c(=C2\Sc3cc(OC)ccc3N2C)s/c1=C\c1scc[n+]1Cc1ccccc1SC(F)(F)F [JG-350],0.059 ± 0.007,0.1 ± 0.01,1.2 ± 0.1,,,
CCn1c(=O)/c(=C2\Sc3cc(Br)ccc3N2C)s/c1=C\c1scc[n+]1Cc1ccccc1Cl [JG-289],0.27 ± 0.02,0.12 ± 0.02,0.96 ± 0.05,,,
CCn1c(=O)/c(=C2\Sc3cc(Cl)ccc3N2C)s/c1=C\c1scc[n+]1Cc1ccccc1SC(F)(F)F [JG-253],,,,0.16 ± 0.01,3.7 ± 0.2,0.13 ± 0.01
CCn1c(=O)/c(=C2\Sc3cc(OC)ccc3N2C)s/c1=C\c1scc[n+]1Cc1ccccc1C(=O)OC [JG-351],0.14 ± 0.01,0.11 ± 0.01,1.6 ± 0.1,,,
CCn1c(=O)/c(=C2\Sc3cc(F)ccc3N2C)s/c1=C\c1scc[n+]1[C@@H](C)c1ccccc1 [JG-336],0.18 ± 0.02,0.21 ± 0.02,2.2 ± 0.1,,,
